Earlier results in US4292313A, “LRF Antagonists” (The Salk Institute for Biological Studies, priority 1980, dated 1981).
[ ]: non-standard residue; d: D form. pGlu = O=C1CC[C@@H](C(=O)O)N1

Tested on: pituitary gland
Details: versus 6-Gly des-His2 analog

[pGlu]WSY[dA]LRPG-NH2
Potency as inhibitor of release of gonadotropins relative to the same peptide with Gly in the 6-position: 3 times
